Laboratory results as given in patent US12673946B2, “Pyrimidin-4(3H)-one derivatives as TRPV4 antagonists” (RaQualia Pharma Inc., priority 2020, dated 2026).

Target: T1, human TRPV4 (Homo sapiens, UniProt Q9HBA0)
T1 construct: host or cells: tetracycline-inducible Flp-In T-REx 293 cells
Assay: Hypotonicity-induced Ca2+ influx (Fluo-4, FDSS)
Type: cell-based
How it was run: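 Flp-In T-REx 293 cells with tetracycline-induced human TRPV4, loaded with Fluo-4 for 60 min at 25 °C. Compound added 5 min before hypotonic mannitol/CaCl2 solution. Ca2+ signal recorded for 4.5 min on FDSS.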

[1] = Flp-In T-REx 293 cells expressing human TRPV4, examples listed under heading 'Human IC50<50 nM'
[2] = Flp-In T-REx 293 cells stably expressing human TRPV4, compounds listed by potency bin (<10 nM Tables 96-1/96-2, <3 nM Table 97)

T1 sequence (Q9HBA0 whole entry): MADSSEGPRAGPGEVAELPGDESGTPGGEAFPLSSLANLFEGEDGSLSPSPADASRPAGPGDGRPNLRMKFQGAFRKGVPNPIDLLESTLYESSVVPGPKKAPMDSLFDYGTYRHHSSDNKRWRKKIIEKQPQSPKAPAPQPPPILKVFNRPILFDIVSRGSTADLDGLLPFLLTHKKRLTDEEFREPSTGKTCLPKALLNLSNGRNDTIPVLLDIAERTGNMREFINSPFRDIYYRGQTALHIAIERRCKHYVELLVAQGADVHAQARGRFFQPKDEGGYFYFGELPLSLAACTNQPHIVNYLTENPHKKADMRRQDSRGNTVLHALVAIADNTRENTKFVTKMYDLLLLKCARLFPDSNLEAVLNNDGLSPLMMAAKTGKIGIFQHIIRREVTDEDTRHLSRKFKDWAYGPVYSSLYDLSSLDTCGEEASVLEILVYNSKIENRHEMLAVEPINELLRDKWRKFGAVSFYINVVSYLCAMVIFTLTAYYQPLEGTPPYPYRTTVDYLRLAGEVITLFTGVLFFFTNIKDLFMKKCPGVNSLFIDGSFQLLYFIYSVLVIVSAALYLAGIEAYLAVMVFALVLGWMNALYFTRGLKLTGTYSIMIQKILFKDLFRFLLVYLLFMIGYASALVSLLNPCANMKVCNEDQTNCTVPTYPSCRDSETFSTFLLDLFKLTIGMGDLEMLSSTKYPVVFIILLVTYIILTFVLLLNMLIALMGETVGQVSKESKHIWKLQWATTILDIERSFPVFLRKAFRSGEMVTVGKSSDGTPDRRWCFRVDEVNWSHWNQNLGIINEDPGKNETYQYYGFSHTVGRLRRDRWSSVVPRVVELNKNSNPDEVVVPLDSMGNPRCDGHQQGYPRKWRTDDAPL

Structure (SMILES) | IC50 [1] [nM] | IC50 [2] [nM]
O=C([C@H](O)c1cccc(C(F)(F)F)c1)N1CCCc2nc(C3(c4cccc(-c5csc6ccccc56)c4)CC3)[nH]c(=O)c2C1 [42-28] | < 50 | < 10
O=C([C@H](O)c1cccc(C(F)(F)F)c1)N1CCCc2nc(C3(c4cc(CCC5(O)CCCCC5)cs4)CC3)[nH]c(=O)c2C1 [30-14] | < 50 | < 10
CC(C)c1csc(C2(c3nc4c(c(=O)[nH]3)CN(C(=O)C(O)c3cccc(C(C)(C)C)c3)CCC4)CC2)c1 (stereo not shown) [18-15] | < 50 | < 10
O=C(C(O)c1cccc(-c2csc3ccccc23)c1)N1CCc2nc(C3(c4ccccc4)CC3)[nH]c(=O)c2C1 (stereo not shown) [44-40] | < 50 | 
CC(C)c1cccc(C2(c3nc4c(c(=O)[nH]3)CN(C(=O)Cc3cccc(-c5cccc(C(F)(F)F)c5)c3)CCC4)CC2)c1 [31-13] | < 50 | < 10
O=C([C@H](O)c1cccc(F)c1F)N1CCCc2nc(C3(c4cccc(Cl)c4)CC3)[nH]c(=O)c2C1 [17-35] | < 50 | < 10
O=C(Cc1cccc(-c2cccc(Cl)c2)c1)N1CCCc2nc(C3(c4cncc(-c5ccccc5)c4)CC3)[nH]c(=O)c2C1 [19-15] | < 50 | < 10
O=C(C(O)c1cccc(SC(F)(F)F)c1)N1CCCc2nc(C3(c4cccc(F)c4)CC3)[nH]c(=O)c2C1 (stereo not shown) [17-30] | < 50 | < 10
O=C([C@H](O)c1cccc(-c2cccc(Cl)c2)c1)N1CCc2nc(C3(c4cccc(Cl)c4)CC3)[nH]c(=O)c2C1 [45-8] | < 50 | < 10
O=C(C(O)c1cccc(C(F)(F)F)c1F)N1CCc2nc(C3(c4cccc(F)c4)CC3)[nH]c(=O)c2C1 (stereo not shown) [14-29] | < 50 | 
O=C(C(O)c1cccc(-c2ccnc(C(F)(F)F)c2)c1F)N1CCc2nc(C3(c4ccccc4)CC3)[nH]c(=O)c2C1 (stereo not shown) [44-23] | < 50 | 

Results, then the compound that gave them:

IC50 [1] [nM] | IC50 [2] [nM] | Structure (SMILES)
< 50 | < 10 | CC(C)c1cccc(C2(c3nc4c(c(=O)[nH]3)CN(C(=O)[C@H](O)c3cccc(-c5cccc(Cl)c5)c3)CCC4)CC2)c1 [51-4]
< 50 |  | O=C(C(O)c1cccc(-c2cccc(F)c2)n1)N1CCc2nc(C3(c4ccccc4)CC3)[nH]c(=O)c2C1 (stereo not shown) [48-10]
< 50 |  | O=C(C(O)c1cccc(-c2ccc(F)cc2F)c1)N1CCc2nc(C3(c4ccccc4)CC3)[nH]c(=O)c2C1 (stereo not shown) [44-52]
< 50 | < 10 | O=C([C@H](O)c1cccc(-c2cc(Cl)cc(C(F)(F)F)c2)c1)N1CCc2nc(C3(c4ccccc4)CC3)[nH]c(=O)c2C1 [44-99]
< 50 | < 3 | O=C([C@H](O)c1cccc(C(F)(F)F)c1)N1CCCc2nc(C3(c4cc(C5CCC(F)(F)CC5)cs4)CC3)[nH]c(=O)c2C1 [30-3]
< 50 |  | CC(C)c1cccc(C2(c3nc4c(c(=O)[nH]3)CN(C(=O)C(O)c3cccc(-c5cccc(C(F)(F)F)c5)c3)CCC4)CC2)c1 (stereo not shown) [17-45]
< 50 |  | CC(C)(C)c1cccc(C(O)C(=O)N2CCCc3nc(C4(c5ccccc5)CC4)[nH]c(=O)c3C2)c1 (stereo not shown) [17-47]
< 50 | < 10 | O=C([C@H](O)c1cccc(C(F)(F)F)c1)N1CCCc2nc(C3(c4cc(CCC5CC5)cs4)CC3)[nH]c(=O)c2C1 [30-8]
< 50 | < 10 | O=C(C(O)c1cccc(-c2ccnc(C(F)(F)F)c2)n1)N1CCc2nc(C3(c4ccccc4)CC3)[nH]c(=O)c2C1 (stereo not shown) [48-3]
< 50 |  | O=C([C@H](O)c1cccc(Cl)c1)N1CCCc2nc(C3(c4ccnc(Oc5ccccc5)c4)CC3)[nH]c(=O)c2C1 [19-9]
< 50 | < 10 | O=C(N1CCCc2nc(C3(c4ccccc4)CC3)[nH]c(=O)c2C1)C(F)(F)c1cccc(-c2cccc(C3CC3)c2)c1 [58-4]
< 50 | < 10 | O=C([C@H](O)c1cccc(-c2cccc(C(F)(F)F)c2)c1)N1CCCc2nc(C3(c4cncc(C5CCCCC5)c4)CC3)[nH]c(=O)c2C1 [55-14]
< 50 | < 3 | O=C(N1CCCc2nc(C3(c4cncc(-c5ccccc5)c4)CC3)[nH]c(=O)c2C1)C(F)(F)c1cccc(Cl)c1F [22-7]
